Consider twelve molecules from publication PMC7531004, “Discovery of gramicidin A analogues with altered activities by multidimensional screening of a one-bead-one-compound library” (Nature Communications, 2020).

For data set [1], the system named is Streptococcus pyogenes SSI-9. In words: Antibacterial activity assay of bead-derived peptides (three concentrations). The class given is cell-based. On the set-up: key: +++: inhibition by the 640-fold diluted peptide solution; ++: inhibition by the 160-fold diluted solution; +: inhibition by the 40-fold diluted solution; -: no inhibition. To be noted: S. pyogenes, bead-derived peptide solution, three concentrations. A digest of the protocol: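 Undiluted, 4-fold and 16-fold DMSO-diluted peptide stocks; S. pyogenes SSI-9, 2 × 10^5 CFU, cation-adjusted MHB (50 mg/L Ca2+, 25 mg/L Mg2+) + 5% laked horse blood; 37 °C, 18 h; readout = cell pellet visible or not.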

The nature of data set [2]: H+/Na+ transport assay of bead-derived peptides (one-point).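 Further: relative to parent gramicidin A activity set to 1.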 As to conditions: bead-derived peptide solution, EYPC/EYPG LUVs. On the set-up: key: relative activity; mean of two control wells = 1.00. The class given is biochemical. A digest of the protocol: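 H+/Na+ transport is monitored through pyranine fluorescence in freshly extruded LUVs after a 30-min room-temperature vortex with each library peptide at a single concentration. Signals are normalized to detergent (Triton X-100) and untreated controls.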

For data set [3] the following is noted: cell viability/%. A digest of the protocol:
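P388 cells at 1 × 10^4 cells/mL (final) were exposed to library peptides (stocks diluted 250-fold in RPMI1640/10% FBS) for 92 h at 37 °C, 5% CO2. Viable cells were counted by WST-1/1-methoxy PMS (4 h), absorbance 415 nm, and expressed as cell viability (%).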

Where a SMILES comes first, the peptide text is derived from it. [ ]: non-standard residue; d: D form. The star is where a group is joined. NHCH2CH2OH = OCCN*; For = O=C*

For orientation: viability means a per cent measure of how many cells are alive, often set against a control. `CC(C)C[C@@H](NC(=O)[C@H](C)NC(=O)CNC(=O)[C@@H](NC=O)C(C)C)C(=O)N[C@@H](C)C(=O)N[C@@H](C(=O)N[C@H](C(=O)N[C@@H](C(=O)N[C@@H](Cc1c[nH]c2ccccc12)C(=O)N[C@@H](C(=O)N[C@@H](Cc1c[nH]c2ccccc12)C(=O)N[C@@H](C(=O)N[C@@H](Cc1c[nH]c2ccccc12)C(=O)N[C@@H](C(=O)N[C@@H](Cc1c[nH]c2ccccc12)C(=O)NCCO)C(C)C)C(C)C)C(C)C)[C@H](C)O)C(C)C)C(C)C` [compound 1520] (For-VGA[dL]A[dV]V[dT]W[dV]W[dV]W[dV]W-NHCH2CH2OH): the antibacterial activity result in data set [1] is given as “-”. Further, the “H+/Na+ transport activity normalized against the value of 1 (1.00)” value (“H+/Na+ transport activity normalized” for short) in data set [2] came to 1.04. Further, the viability in data set [3] worked out at 100%.
The matching figures for `CC(C)C[C@@H](NC(=O)[C@H](C)NC(=O)[C@H](NC(=O)[C@H](C)NC(=O)CNC(=O)[C@@H](NC=O)C(C)C)C(C)C)C(=O)N[C@H](C(=O)N[C@H](CC(C)C)C(=O)N[C@@H](Cc1c[nH]c2ccccc12)C(=O)N[C@@H](C(=O)N[C@@H](Cc1c[nH]c2ccccc12)C(=O)N[C@@H](C(=O)N[C@@H](Cc1c[nH]c2ccccc12)C(=O)N[C@H](CC(C)C)C(=O)N[C@@H](Cc1c[nH]c2ccccc12)C(=O)NCCO)C(C)C)C(C)C)C(C)C` [compound 11126] (For-VGA[dV]A[dL]V[dL]W[dV]W[dV]W[dL]W-NHCH2CH2OH): “-”, 1.07 and 8.7%.
The matching figures for `CC(C)C[C@@H](NC(=O)[C@@H](NC(=O)[C@H](NC(=O)[C@H](C)NC(=O)[C@H](NC(=O)[C@H](C)NC(=O)CNC(=O)[C@@H](NC=O)C(C)C)C(C)C)C(C)C)C(C)C)C(=O)N[C@@H](Cc1c[nH]c2ccccc12)C(=O)N[C@@H](C(=O)N[C@@H](Cc1c[nH]c2ccccc12)C(=O)N[C@@H](C(=O)N[C@@H](Cc1c[nH]c2ccccc12)C(=O)N[C@@H](C(=O)N[C@@H](Cc1c[nH]c2ccccc12)C(=O)NCCO)[C@H](C)O)C(C)C)C(C)C` [compound 7050] (For-VGA[dV]A[dV]V[dL]W[dV]W[dV]W[dT]W-NHCH2CH2OH): “-”, 1.21 and 100%.
The matching figures for `CNC(=O)C[C@@H](NC(=O)[C@H](Cc1c[nH]c2ccccc12)NC(=O)[C@H](NC(=O)[C@H](Cc1c[nH]c2ccccc12)NC(=O)[C@@H](CC(C)C)NC(=O)[C@H](Cc1c[nH]c2ccccc12)NC(=O)[C@H](NC(=O)[C@@H](NC(=O)[C@@H](CC(C)C)NC(=O)[C@H](C)NC(=O)[C@H](NC(=O)[C@H](C)NC(=O)CNC(=O)[C@@H](NC=O)C(C)C)C(C)C)C(C)C)C(C)C)C(C)C)C(=O)N[C@@H](Cc1c[nH]c2ccccc12)C(=O)NCCO` [compound 2425] (For-VGA[dV]A[dL]V[dV]W[dL]W[dV]W[dD](NHMe)W-NHCH2CH2OH): “-”, 1.07 and 100%.
Turning to `CNC(=O)C[C@@H](NC(=O)[C@H](C)NC(=O)CNC(=O)[C@@H](NC=O)C(C)C)C(=O)N[C@@H](C)C(=O)N[C@@H](C(=O)N[C@H](C(=O)N[C@@H](C(=O)N[C@@H](Cc1c[nH]c2ccccc12)C(=O)N[C@H](CC(C)C)C(=O)N[C@@H](Cc1c[nH]c2ccccc12)C(=O)N[C@H](CC(C)C)C(=O)N[C@@H](Cc1c[nH]c2ccccc12)C(=O)N[C@@H](C(=O)N[C@@H](Cc1c[nH]c2ccccc12)C(=O)NCCO)C(C)C)C(C)C)C(C)C)C(C)C` [compound 11200] (For-VGA[dD](NHMe)A[dV]V[dV]W[dL]W[dL]W[dV]W-NHCH2CH2OH), the antibacterial activity result in data set [1] was “-”. Moreover, in data set [2], the “H+/Na+ transport activity normalized” value is 1.06. Also, the viability in data set [3] amounted to 66%.
The matching figures for `CC(C)C[C@@H](NC(=O)[C@@H](NC(=O)[C@H](NC(=O)[C@H](C)NC(=O)[C@H](NC(=O)[C@H](C)NC(=O)CNC(=O)[C@@H](NC=O)C(C)C)C(C)C)C(C)C)C(C)C)C(=O)N[C@@H](Cc1c[nH]c2ccccc12)C(=O)N[C@@H](C(=O)N[C@@H](Cc1c[nH]c2ccccc12)C(=O)N[C@@H](C(=O)N[C@@H](Cc1c[nH]c2ccccc12)C(=O)N[C@@H](C(=O)N[C@@H](Cc1c[nH]c2ccccc12)C(=O)NCCO)C(C)C)C(C)C)C(C)C` [compound 885] (For-VGA[dV]A[dV]V[dL]W[dV]W[dV]W[dV]W-NHCH2CH2OH): “-”, 1.03 and 93.4%.
For `CC(C)C[C@@H](NC(=O)[C@H](C)NC(=O)[C@H](NC(=O)[C@H](C)NC(=O)CNC(=O)[C@@H](NC=O)C(C)C)C(C)C)C(=O)N[C@H](C(=O)N[C@H](CC(C)C)C(=O)N[C@@H](Cc1c[nH]c2ccccc12)C(=O)N[C@@H](C(=O)N[C@@H](Cc1c[nH]c2ccccc12)C(=O)N[C@@H](C(=O)N[C@@H](Cc1c[nH]c2ccccc12)C(=O)N[C@H](CC(C)C)C(=O)N[C@@H](Cc1c[nH]c2ccccc12)C(=O)NCCO)C(C)C)[C@H](C)O)C(C)C` [compound 5572] (For-VGA[dV]A[dL]V[dL]W[dT]W[dV]W[dL]W-NHCH2CH2OH), in that order: “+”, 1.24 and 100%.
The matching figures for `CC(C)C[C@@H](NC(=O)[C@H](C)NC(=O)[C@H](NC(=O)[C@H](C)NC(=O)CNC(=O)[C@@H](NC=O)C(C)C)C(C)C)C(=O)N[C@H](C(=O)N[C@@H](C(=O)N[C@@H](Cc1c[nH]c2ccccc12)C(=O)N[C@@H](C(=O)N[C@@H](Cc1c[nH]c2ccccc12)C(=O)N[C@@H](C(=O)N[C@@H](Cc1c[nH]c2ccccc12)C(=O)N[C@@H](C(=O)N[C@@H](Cc1c[nH]c2ccccc12)C(=O)NCCO)C(C)C)C(C)C)C(C)C)C(C)C)C(C)C` [compound 7690] (For-VGA[dV]A[dL]V[dV]W[dV]W[dV]W[dV]W-NHCH2CH2OH): “-”, 1.03 and 100%.
Regarding `CC(C)C[C@@H](NC(=O)[C@H](C)NC(=O)CNC(=O)[C@@H](NC=O)C(C)C)C(=O)N[C@@H](C)C(=O)N[C@H](CC(C)C)C(=O)N[C@H](C(=O)N[C@H](CC(C)C)C(=O)N[C@@H](Cc1c[nH]c2ccccc12)C(=O)N[C@H](CC(C)C)C(=O)N[C@@H](Cc1c[nH]c2ccccc12)C(=O)N[C@@H](C(=O)N[C@@H](Cc1c[nH]c2ccccc12)C(=O)N[C@@H](C(=O)N[C@@H](Cc1c[nH]c2ccccc12)C(=O)NCCO)C(C)C)[C@H](C)O)C(C)C` [compound 2346] (For-VGA[dL]A[dL]V[dL]W[dL]W[dT]W[dV]W-NHCH2CH2OH), the antibacterial activity result in data set [1] is on record as “+”. Further, the “H+/Na+ transport activity normalized” value in data set [2] was 1.03. In data set [3], the viability was 100%.
For `CC(C)C[C@@H](NC(=O)[C@H](C)NC(=O)[C@H](NC(=O)[C@H](C)NC(=O)CNC(=O)[C@@H](NC=O)C(C)C)C(C)C)C(=O)N[C@H](C(=O)N[C@H](CC(C)C)C(=O)N[C@@H](Cc1c[nH]c2ccccc12)C(=O)N[C@@H](C(=O)N[C@@H](Cc1c[nH]c2ccccc12)C(=O)N[C@@H](C(=O)N[C@@H](Cc1c[nH]c2ccccc12)C(=O)N[C@H](CC(C)C)C(=O)N[C@@H](Cc1c[nH]c2ccccc12)C(=O)NCCO)[C@H](C)O)C(C)C)C(C)C` [compound 3205] (For-VGA[dV]A[dL]V[dL]W[dV]W[dT]W[dL]W-NHCH2CH2OH), in that order: “-”, 1.16 and 90.2%.
The matching figures for `CC(C)C[C@@H](NC(=O)[C@H](Cc1c[nH]c2ccccc12)NC(=O)[C@@H](CC(C)C)NC(=O)[C@@H](NC(=O)[C@H](NC(=O)[C@H](C)NC(=O)[C@H](NC(=O)[C@H](C)NC(=O)CNC(=O)[C@@H](NC=O)C(C)C)[C@H](C)O)C(C)C)C(C)C)C(=O)N[C@@H](Cc1c[nH]c2ccccc12)C(=O)N[C@@H](C(=O)N[C@@H](Cc1c[nH]c2ccccc12)C(=O)N[C@@H](C(=O)N[C@@H](Cc1c[nH]c2ccccc12)C(=O)NCCO)C(C)C)C(C)C` [compound 5563] (For-VGA[dT]A[dV]V[dL]W[dL]W[dV]W[dV]W-NHCH2CH2OH): “-”, 1.08 and 100%.
The matching figures for `CC(C)C[C@@H](NC(=O)[C@H](C)NC(=O)[C@H](NC(=O)[C@H](C)NC(=O)CNC(=O)[C@@H](NC=O)C(C)C)C(C)C)C(=O)N[C@H](C(=O)N[C@@H](C(=O)N[C@@H](Cc1c[nH]c2ccccc12)C(=O)N[C@H](CC(C)C)C(=O)N[C@@H](Cc1c[nH]c2ccccc12)C(=O)N[C@@H](C(=O)N[C@@H](Cc1c[nH]c2ccccc12)C(=O)N[C@H](CC(C)C)C(=O)N[C@@H](Cc1c[nH]c2ccccc12)C(=O)NCCO)C(C)C)[C@H](C)O)C(C)C` [compound 6842] (For-VGA[dV]A[dL]V[dT]W[dL]W[dV]W[dL]W-NHCH2CH2OH): “-”, 1.14 and 100%.
